Experimental data: US20240217963A1, “RECEPTOR-INTERACTING PROTEIN 1 INHIBITORS, PREPARATIONS, AND USES THEREOF” (SIRONAX LTD., priority 2021, published 2024)

Molecular target: T1, RIP1 (Homo sapiens, UniProt Q13546)
T1 sequence (Q13546 1-671): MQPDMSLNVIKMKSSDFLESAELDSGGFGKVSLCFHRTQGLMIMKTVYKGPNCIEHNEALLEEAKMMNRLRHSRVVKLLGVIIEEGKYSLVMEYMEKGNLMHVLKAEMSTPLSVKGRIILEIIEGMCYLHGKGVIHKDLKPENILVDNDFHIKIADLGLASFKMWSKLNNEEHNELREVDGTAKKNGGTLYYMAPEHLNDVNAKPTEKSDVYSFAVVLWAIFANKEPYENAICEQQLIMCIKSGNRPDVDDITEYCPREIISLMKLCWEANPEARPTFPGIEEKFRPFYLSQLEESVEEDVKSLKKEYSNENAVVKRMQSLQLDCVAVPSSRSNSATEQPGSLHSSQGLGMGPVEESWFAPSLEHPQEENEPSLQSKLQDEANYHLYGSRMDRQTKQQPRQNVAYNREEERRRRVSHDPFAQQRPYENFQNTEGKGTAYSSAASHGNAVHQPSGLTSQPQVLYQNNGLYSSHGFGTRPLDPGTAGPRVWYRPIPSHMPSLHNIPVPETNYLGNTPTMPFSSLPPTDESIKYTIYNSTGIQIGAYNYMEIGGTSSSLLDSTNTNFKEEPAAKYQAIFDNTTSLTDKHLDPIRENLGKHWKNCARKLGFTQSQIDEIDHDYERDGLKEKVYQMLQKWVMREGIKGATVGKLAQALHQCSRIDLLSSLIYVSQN
Experiment: Cellular RIP1 inhibitory activity: HT-29 necroptosis (TNFα/SMAC mimetic/zVAD-FMK) CellTiter-Glo viability assay
Assay type: cell-based
Conditions: HT-29 cells, TNF-α 10 ng/ml + SMAC mimetic 6 μM + zVAD-FMK 10 μM, 20 hours, geometric mean, read-out: EC50 Values of in vitro Cellular RIP1 Inhibitory Activity

Row | Compound | EC50
1 | Cc1cnn(C)c1-c1nc(N2CCC(C(=O)N(C)Cc3cncs3)CC2)ncc1F [Compound 98, 1-(4-(1,4-dimethyl-1H-pyrazol-5-yl)-5-fluoropyrimidin-2-yl)-N-methyl-N-(thiazol-5-ylmethyl)piperidine-4-carboxamide] | 0.1 to 100 nM
2 | Cc1cnn(C)c1-c1cc(N2CCC(C(=O)N(O)Cc3cc(F)cc(F)c3)CC2)ncn1 [Compound 41, N-(3,5-difluorobenzyl)-1-(6-(1,4-dimethyl-1H-pyrazol-5-yl)pyrimidin-4-yl)-N-hydroxypiperidine-4-carboxamide] | 0.1 to 100 nM
3 | [2H]C([2H])([2H])N(Cc1nccs1)C(=O)C1CCN(c2ncc(F)c(-c3c(C)cnn3C)n2)CC1 [Compound 77, 1-(4-(1,4-dimethyl-1H-pyrazol-5-yl)-5-fluoropyrimidin-2-yl)-N-(methyl-d3)-N-(thiazol-2-ylmethyl)piperidine-4-carboxamide] | 0.1 to 100 nM
4 | Cc1cnn(C)c1-c1nc(N2CCC(C(=O)N[C@@H](CO)c3ccccc3)CC2)ncc1F [Compound 35, (R)-1-(4-(1,4-dimethyl-1H-pyrazol-5-yl)-5-fluoropyrimidin-2-yl)-N-(2-hydroxy-1-phenylethyl)piperidine-4-carboxamide] | 0.1 to 100 nM
5 | [2H]C([2H])(NC(=O)C1CCN(c2ncc(F)c(-c3c(C)cnn3C)n2)CC1)c1cc(F)cc(F)c1F [Compound 60, 1-(4-(1,4-dimethyl-1H-pyrazol-5-yl)-5-fluoropyrimidin-2-yl)-N-((2,3,5-trifluorophenyl)methyl-d2)piperidine-4-carboxamide] | 0.1 to 100 nM
6 | CCN(Cc1ccn(C)n1)C(=O)C1CCN(c2ncc(F)c(-c3c(C)cnn3C)n2)CC1 [Compound 82, 1-(4-(1,4-dimethyl-1H-pyrazol-5-yl)-5-fluoropyrimidin-2-yl)-N-ethyl-N-((1-methyl-1H-pyrazol-3-yl)methyl)piperidine-4-carboxamide] | 0.1 to 100 nM
7 | Cc1cnn(C)c1-c1nc(N2CCC(C(=O)N(O)Cc3nccs3)CC2)ncc1F [Compound 12, 1-(4-(1,4-dimethyl-1H-pyrazol-5-yl)-5-fluoropyrimidin-2-yl)-N-hydroxy-N-(thiazol-2-ylmethyl)piperidine-4-carboxamide] | 0.1 to 100 nM
8 | [2H]C([2H])([2H])N(C(=O)C1CCN(c2ncc(F)c(-c3ncnn3C)n2)CC1)C([2H])([2H])c1cc(F)cc(F)c1F [Compound 75, 1-(5-fluoro-4-(1-methyl-1H-1,2,4-triazol-5-yl)pyrimidin-2-yl)-N-(methyl-d3)-N-((2,3,5-trifluorophenyl)methyl-d2)piperidine-4-carboxamide] | 0.1 to 100 nM
9 | Cc1cnn(C)c1-c1nc(N2CCC(C(=O)N(O)Cc3ncccc3F)CC2)ncc1F [Compound 8, 1-(4-(1,4-dimethyl-1H-pyrazol-5-yl)-5-fluoropyrimidin-2-yl)-N-((3-fluoropyridin-2-yl)methyl)-N-hydroxypiperidine-4-carboxamide] | 0.1 to 100 nM
10 | Cc1cnn(C)c1-c1nc(N2CCC(C(=O)N(O)Cc3cccnc3)CC2)ncc1F [Compound 38, 1-(4-(1,4-dimethyl-1H-pyrazol-5-yl)-5-fluoropyrimidin-2-yl)-N-hydroxy-N-(pyridin-3-ylmethyl)piperidine-4-carboxamide] | 0.1 to 100 nM
11 | CCN(Cc1cc(F)cc(F)c1)C(=O)C1CCN(c2cc(-c3c(C)cnn3C)ncn2)CC1 [Compound 89, N-(3,5-difluorobenzyl)-1-(6-(1,4-dimethyl-1H-pyrazol-5-yl)pyrimidin-4-yl)-N-ethylpiperidine-4-carboxamide] | 100 to 1000 nM
12 | Cc1cnn(C)c1-c1cc(N2CCC(C(=O)NCc3nccs3)CC2)c(F)cn1 [Compound 63, 1-(2-(1,4-dimethyl-1H-pyrazol-5-yl)-5-fluoropyridin-4-yl)-N-(thiazol-2-ylmethyl)piperidine-4-carboxamide] | 100 to 1000 nM
13 | Cc1cnn(C)c1-c1ncc(F)c(N2CCC(C(=O)N(O)Cc3cc(F)cc(F)c3)CC2)n1 [Compound 55, N-(3,5-difluorobenzyl)-1-(2-(1,4-dimethyl-1H-pyrazol-5-yl)-5-fluoropyrimidin-4-yl)-N-hydroxypiperidine-4-carboxamide] | 0.1 to 100 nM
14 | Cc1cnn(C)c1-c1nc(N2CCC(C(=O)N(C)Cc3cnn(C)c3)CC2)ncc1F [Compound 83, 1-(4-(1,4-dimethyl-1H-pyrazol-5-yl)-5-fluoropyrimidin-2-yl)-N-methyl-N-((1-methyl-1H-pyrazol-4-yl)methyl)piperidine-4-carboxamide] | 100 to 1000 nM
15 | Cc1cnn(C)c1-c1nc(N2CCC(C(=O)NCc3cc(F)cc(F)c3)CC2)ncc1F [Compound 62, N-(3,5-difluorobenzyl)-1-(4-(1,4-dimethyl-1H-pyrazol-5-yl)-5-fluoropyrimidin-2-yl)piperidine-4-carboxamide] | 0.1 to 100 nM
16 | Cc1nc(CN(C)C(=O)C2CCN(c3ncc(F)c(-c4c(C)cnn4C)n3)CC2)c(C)s1 [Compound 92] | 100 to 1000 nM
17 | CCN(Cc1cc(F)cc(F)c1F)C(=O)C1CCN(c2ncc(F)c(-c3c(C)cnn3C)n2)CC1 [Compound 67, 1-(4-(1,4-dimethyl-1H-pyrazol-5-yl)-5-fluoropyrimidin-2-yl)-N-ethyl-N-(2,3,5-trifluorobenzyl)piperidine-4-carboxamide] | 0.1 to 100 nM
18 | Cc1cnn(C)c1-c1cc(N2CCC(C(=O)N(C)Cc3nccs3)CC2)c(F)cn1 [Compound 86, 1-(2-(1,4-dimethyl-1H-pyrazol-5-yl)-5-fluoropyridin-4-yl)-N-methyl-N-(thiazol-2-ylmethyl)piperidine-4-carboxamide] | 0.1 to 100 nM
19 | Cn1ncnc1-c1nc(N2CCC(C(=O)NCc3cc(F)cc(F)c3F)CC2)ncc1F [Compound 21, 1-(5-fluoro-4-(1-methyl-1H-1,2,4-triazol-5-yl)pyrimidin-2-yl)-N-(2,3,5-trifluorobenzyl)piperidine-4-carboxamide] | 0.1 to 100 nM
20 | Cc1nnc(CN(C)C(=O)C2CCN(c3ncc(F)c(-c4c(C)cnn4C)n3)CC2)s1 [Compound 87, 1-(4-(1,4-dimethyl-1H-pyrazol-5-yl)-5-fluoropyrimidin-2-yl)-N-methyl-N-((5-methyl-1,3,4-thiadiazol-2-yl)methyl)piperidine-4-carboxamide] | 100 to 1000 nM
21 | Cn1ncnc1-c1nc(N2CCC(C)(C(=O)N(O)Cc3cc(F)cc(F)c3)CC2)ncc1F [Compound 18, N-(3,5-difluorobenzyl)-1-(5-fluoro-4-(1-methyl-1H-1,2,4-triazol-5-yl)pyrimidin-2-yl)-N-hydroxy-4-methylpiperidine-4-carboxamide] | 0.1 to 100 nM
22 | Cc1nc(C)n(-c2nc(N3CCC(C(=O)NCc4cc(F)cc(F)c4)CC3)ncc2F)n1 [Compound 2, N-(3,5-difluorobenzyl)-1-(4-(3,5-dimethyl-1H-1,2,4-triazol-1-yl)-5-fluoropyrimidin-2-yl)piperidine-4-carboxamide] | 0.1 to 100 nM
23 | Cc1cnn(C)c1-c1nc(N2CCC(C(=O)N(O)CC3=CCCCC3)CC2)ncc1F [Compound 48, N-(cyclohex-1-en-1-ylmethyl)-1-(4-(1,4-dimethyl-1H-pyrazol-5-yl)-5-fluoropyrimidin-2-yl)-N-hydroxypiperidine-4-carboxamide] | 0.1 to 100 nM
24 | Cc1nc(C)c(CN(C)C(=O)C2CCN(c3ncc(F)c(-c4c(C)cnn4C)n3)CC2)s1 [Compound 69, 1-(4-(1,4-dimethyl-1H-pyrazol-5-yl)-5-fluoropyrimidin-2-yl)-N-((2,4-dimethylthiazol-5-yl)methyl)-N-methylpiperidine-4-carboxamide] | 100 to 1000 nM
25 | Cc1cnn(C)c1-c1nc(N2CCC(C(=O)N(O)C(C)c3ccccc3)CC2)ncc1F (stereo not drawn) [Compound 34, 1-(4-(1,4-dimethyl-1H-pyrazol-5-yl)-5-fluoropyrimidin-2-yl)-N-hydroxy-N-(1-phenylethyl)piperidine-4-carboxamide] | 0.1 to 100 nM
26 | CCN(Cc1nc(C)cs1)C(=O)C1CCN(c2ncc(F)c(-c3c(C)cnn3C)n2)CC1 [Compound 72, 1-(4-(1,4-dimethyl-1H-pyrazol-5-yl)-5-fluoropyrimidin-2-yl)-N-ethyl-N-((4-methylthiazol-2-yl)methyl)piperidine-4-carboxamide] | 0.1 to 100 nM
27 | Cc1cnn(C)c1-c1nc(N2CCC(C(=O)NCc3cc(F)cc(F)c3F)CC2)ncc1F [Compound 6, 1-(4-(1,4-dimethyl-1H-pyrazol-5-yl)-5-fluoropyrimidin-2-yl)-N-(2,3,5-trifluorobenzyl)piperidine-4-carboxamide] | 0.1 to 100 nM
28 | Cc1cnn(C)c1-c1nc(N2CCC(C(=O)N(O)Cc3ccncc3F)CC2)ncc1F [Compound 11, 1-(4-(1,4-dimethyl-1H-pyrazol-5-yl)-5-fluoropyrimidin-2-yl)-N-((3-fluoropyridin-4-yl)methyl)-N-hydroxypiperidine-4-carboxamide] | 0.1 to 100 nM
29 | Cc1cnn(C)c1-c1nc(N2CCC(C(=O)NCC3CCCCC3)CC2)ncc1F [Compound 28, N-(cyclohexylmethyl)-1-(4-(1,4-dimethyl-1H-pyrazol-5-yl)-5-fluoropyrimidin-2-yl)piperidine-4-carboxamide] | 0.1 to 100 nM
30 | Cc1cnn(C)c1-c1cc(OC2CC(C(=O)N(O)Cc3cc(F)cc(F)c3)C2)c(F)cn1 (stereo not drawn) [Compound 53] | 0.1 to 100 nM
